Like-named read-outs stand apart in the source and are kept apart here. Each block holds one compound with its values, some of them ahead of it.
Tests used:
MCF7 WT = assay: In vitro proliferation (viability) assay, MCF7-WT cells, CellTiter-Glo; assay type: cell-based; settings: Homo sapiens, MCF7, 144 h
Method: (§1) MCF7 BUS cells (Coser, et al., (2003) PNAS 100(24): 13994-13999) were maintained in Dulbecco's Modified Eagle Medium supplemented with 10% FBS, 4 mM L-glutamine and 1× non-essential amino acids. Lenti-X 293T cells (Clontech, Cat #632180) were routinely cultured in Dulbecco's Modified Eagle Medium supplemented with 10% FBS.
(§2) The QuikChange II XL Site-Directed Mutagenesis Kit (Agilent Technologies, Cat #200523) was used to generate Y537S, Y537C, Y537N and D538G mutations within the ERα exon 8. […]
(§3) MCF7-WT and -Y537S cells were seeded at 1500 cells/well in black-walled 96-well plates (assay plates, Costar, Cat #3904). In parallel, cells were also seeded in a separate 96-well plate (8 wells/cell line, control plate) for which a CTG (CellTiter-Glo@ Luminescent Viability Assay. Promega, Cat # G7572) was measured the following day (day 0 reading). The day 0 reading was used for the GI50 calculation at the termination of the experiment. […] On day 6, CTG was measured and compared to day 0 readings from control plate to assess GI50.

MCF7 Y537S = assay: In vitro proliferation (viability) assay, MCF7-Y537S cells, CellTiter-Glo; assay type: cell-based; settings: Homo sapiens, MCF7, 144 h
Method: as §1, §2, §3

[1] = system: MCF7 cells expressing ERα Y537S/N/C, D538G; assay: In vitro proliferation of wild-type and mutant ER-bearing MCF7 lines with clinical therapies (FIG. 1); assay type: cell-based, human; settings: ectopic expression of ERα Y537S/N/C
Method: 48 h post-transfection, virus containing media was filtered and added to MCF7 cells in the presence of 8 μg/ml polybrene overnight. Two days following infection, cells were placed under selection with 10 μg/ml blasticidin for 2 weeks for stable expression.
In parallel, cells were also seeded in a separate 96-well plate (8 wells/cell line, control plate) for which a CTG (CellTiter-Glo@ Luminescent Viability Assay. Promega, Cat # G7572) was measured the following day (day 0 reading). The day 0 reading was used for the GI50 calculation at the termination of the experiment. The day following seeding, compounds were added to assay plates. Briefly, a 1:4 serial dilution was prepared in DMSO at 200× final concentration for a total of 10 concentrations (9 dilutions containing compound and one is DMSO only). Serially diluted compounds were pipetted into medium to prepare a compound-medium mix at 10× final concentration. 10 μl of compound-medium mix was added to MCF7-WT and -Y537S cells at 3 wells/concentration (triplicate for each concentration). On day 3, media-compound was removed and replaced with fresh media/compound as described above. On day 6, CTG was measured and compared to day 0 readings from control plate to assess GI50.

Compound: [2H]C([2H])([2H])N(C(=O)/C=C/CNCCOc1ccc(/C(=C(/CC(F)(F)F)c2ccccc2)c2ccc3[nH]nc(F)c3c2)cc1)C([2H])([2H])[2H] [Compound 22, (E)-N,N-di(^2H3)methyl-4-((2-(4-((E)-4,4,4-trifluoro-1-(3-fluoro-1H-indazol-5-yl)-2-phenylbut-1-en-1-yl)phenoxy)ethyl)amino)but-2-enamide]
GI50 (MCF7 WT; read-out: MCF7 WT GI50 (nM)): 1.62 ± 0.87 nM
GI50 (MCF7 Y537S; read-out: MCF7 Y537S GI50 (nM)): 6.19 ± 4.84 nM

GI50 (MCF7 WT; 6 day treatment, CTG, average ± SD (number of trials), free base and/or salt forms, read-out: MCF7 WT GI50): 1.39 ± 0.56 nM
GI50 (MCF7 Y537S; 6 day treatment, CTG, average ± SD (number of trials), free base and/or salt forms, read-out: MCF7 Y537S GI50): 28.4 ± 32.6 nM
Compound: O=C(CCCNCCOc1ccc(/C(=C(/CC(F)(F)F)c2ccccc2)c2ccc3[nH]ncc3c2)cc1)N1CCCC1 [Compound 42, (E)-1-(pyrrolidin-1-yl)-4-((2-(4-(4,4,4-trifluoro-1-(1H-indazol-5-yl)-2-phenylbut-1-en-1-yl)phenoxy)ethyl)amino)butan-1-one]

Compound: C[C@]12CC[C@@H]3c4ccc(O)cc4C[C@@H](CCCCCCCCC[S+]([O-])CCCC(F)(F)C(F)(F)F)[C@H]3[C@@H]1CC[C@@H]2O (stereo partly shown) [fulvestrant]
Proliferation effect in ERα mutant-bearing MCF7 lines relative to control lines [1]: conferred phenotypic resistance

Compound: O=C(c1ccc(OCCN2CCCCC2)cc1)c1c(-c2ccc(O)cc2)sc2cc(O)ccc12 [raloxifene]
Proliferation effect in ERα mutant-bearing MCF7 lines relative to control lines [1]: conferred phenotypic resistance

Compound: CC/C(=C(\c1ccccc1)c1ccc(OCCN(C)C)cc1)c1ccccc1 [tamoxifen]
Proliferation effect in ERα mutant-bearing MCF7 lines relative to control lines [1]: conferred phenotypic resistance

— US20200255415A1, “TETRASUBSTITUTED ALKENE COMPOUNDS AND THEIR USE FOR THE TREATMENT OF BREAST CANCER” (Eisai R&D Management Co., Ltd., priority 2016, published 2020)
